Experimental data taken from patent publication US7018639B1, “Vaccine antigens of Moraxella” (Commonwealth Scientific and Industrial Research Organisation, priority 1999, dated 2006).

Tested on: M. bovis protease
Assay type: biochemical, Moraxella bovis
Conditions: 37° C.

SMILES: O=S(=O)(F)Cc1ccccc1 [PMSF, phenylmethylsulfonyl fluoride]
- protease activity after inhibitor: zero
